Converted amounts (≈) assume the structure as drawn.
molecular target: T1, AJLec (Anthopleura japonica, UniProt A0A2Z5WLM1); test: hemagglutination inhibition, rabbit erythrocytes; format: cell-based; conditions: 2.4–2.6 μg/mL AJLec, TBS-Ca2+
T1 construct: mature 164 residues, 18,491 Da, precursor 186 residues; N-terminal pyroglutamate; disulfide-linked homodimer (36 kDa); Ca2+ dependent
T1 sequence (A0A2Z5WLM1 23-186): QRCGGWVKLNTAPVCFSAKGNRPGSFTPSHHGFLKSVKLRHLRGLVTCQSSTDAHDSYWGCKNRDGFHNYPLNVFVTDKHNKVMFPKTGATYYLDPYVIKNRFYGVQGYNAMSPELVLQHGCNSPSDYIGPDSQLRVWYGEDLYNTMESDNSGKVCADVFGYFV
From the text: hemagglutination inhibition, rabbit erythrocytes on AJLec

In order of falling “Minimum inhibitory concentration” value:
1. CC(=O)N[C@H]1C(O)O[C@H](CO)[C@H](O)[C@@H]1O (some centres unmarked) [N-Acetylgalactosamine]  25000 µM (≈ 5530 µg/mL)
2. OC[C@H]1O[C@H](O[C@H]2[C@H](O)[C@@H](O)C(O)O[C@@H]2CO)[C@H](O)[C@@H](O)[C@@H]1O (some centres unmarked) [Maltose]  6300 µM (≈ 2160 µg/mL)
3. OC[C@H]1O[C@H](OC[C@H]2OC(O)(CO)[C@@H](O)[C@@H]2O)[C@H](O)[C@@H](O)[C@@H]1O (some centres unmarked) [Palatinose]  3100 µM (≈ 1060 µg/mL)
4. C[C@@H]1OC(O)[C@@H](O)[C@H](O)[C@@H]1O (stereo partly drawn) [L-Fucose]  3000 µM (≈ 492 µg/mL)
5. C[C@@H]1OC(O)[C@H](O)[C@H](O)[C@H]1O (stereo partly drawn) [L-Rhamnose]  3000 µM (≈ 492 µg/mL)
6. OC[C@H]1O[C@H](OC[C@H]2OC(O)[C@H](O)[C@@H](O)[C@@H]2O)[C@H](O)[C@@H](O)[C@H]1O (some centres unmarked) [Melibiose]  800 µM (≈ 274 µg/mL)
7. OC[C@H]1O[C@H](OC[C@H]2O[C@H](O[C@]3(CO)O[C@H](CO)[C@@H](O)[C@@H]3O)[C@H](O)[C@@H](O)[C@@H]2O)[C@H](O)[C@@H](O)[C@H]1O [Raffinose]  800 µM (≈ 404 µg/mL)
8. CO[C@H]1O[C@H](CO)[C@H](O)[C@H](O)[C@H]1O [Me-α-Gal]  800 µM (≈ 155 µg/mL)
9. CO[C@@H]1O[C@H](CO)[C@H](O)[C@H](O)[C@H]1O [Me-β-Gal]  400 µM (≈ 77.7 µg/mL)
10. OC[C@H]1O[C@@H](O[C@H]2[C@H](O)[C@@H](O)C(O)O[C@@H]2CO)[C@H](O)[C@@H](O)[C@H]1O (some centres unmarked) [Lactose]  100 µM (≈ 34.2 µg/mL)
11. OC[C@H]1O[C@@H](O[C@@H]2[C@@H](CO)OC(O)(CO)[C@H]2O)[C@H](O)[C@@H](O)[C@H]1O (some centres unmarked) [Lactulose]  100 µM (≈ 34.2 µg/mL)
12. OC[C@H]1OC(O)[C@H](O)[C@@H](O)[C@H]1O (some centres unmarked) [Galactose]  50 µM (≈ 9.01 µg/mL)

In the case of OC[C@H]1OC(O)[C@H](O)[C@@H](O)[C@@H]1O (stereo partly drawn) [D-Glucose], the “Minimum inhibitory concentration” value is reported as over 25000 µM.
For OC[C@H]1OC(O)[C@@H](O)[C@@H](O)[C@@H]1O (stereo partly drawn) [D-Mannose], the “Minimum inhibitory concentration” value was over 25000 µM.
CO[C@H]1O[C@H](CO)[C@@H](O)[C@H](O)[C@@H]1O [Me-α-Man] was tested, and the “Minimum inhibitory concentration” value was over 25000 µM.
CO[C@H]1O[C@H](CO)[C@@H](O)[C@H](O)[C@H]1O [Me-α-Glc] was tested, and the “Minimum inhibitory concentration” value was over 25000 µM.

molecular target: AJLec (Anthopleura japonica Lectin) (Anthopleura japonica); test: crystal structure; AJLec with 100 mM lactose and 1 mM CaCl2 in TBS; vapor diffusion, 200 mM NaCl, 100 mM HEPES pH 7.5, 30% PEG 3350, 20 °C; two chains per asymmetric unit; conditions: not given

Work on “AJLec (Anthopleura japonica Lectin) (natural protein)” yielded a stoichiometry N of 2.

From article PMC6070535, “Identification, Characterization, and X-ray Crystallographic Analysis of a Novel Type of Lectin AJLec from the Sea Anemone Anthopleura japonica” (Scientific Reports, 2018)
